Source: US9695155B2, “Herbicidal substituted pyrimidinyloxy benzene compounds” (E. I. DU PONT DE NEMOURS AND COMPANY, priority 2013, dated 2017)

Tests used:
morningglory = assay: Test A preemergence; assay type: in vivo, Ipomoea spp.; conditions: for Morningglory plant response rating (0 to 100 scale): 125 g ai/ha; for Morningglory plant response rating: 500 g ai/ha, 0 to 100 scale where 0 is no effect and 100 is complete control
Method in brief: (§1)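 Injury scores run from 0, no effect, to 100, complete control, judged by eye against untreated plants roughly 10 days after treatment. Chemicals carried a surfactant in a non-phytotoxic solvent and went onto loam–sand soil preemergence or onto one- to two-leaf seedlings postemergence.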

pigweed [1] = assay: Test A preemergence; assay type: in vivo, Amaranthus retroflexus; conditions: for Pigweed plant response rating (0 to 100 scale): 125 g ai/ha; for Pigweed plant response rating: 500 g ai/ha, 0 to 100 scale where 0 is no effect and 100 is complete control
Method in brief: as §1

wheat [2] = assay: Test A preemergence; assay type: in vivo, Triticum aestivum; conditions: for Wheat plant response rating (0 to 100 scale): 125 g ai/ha; for Wheat plant response rating: 500 g ai/ha, 0 to 100 scale where 0 is no effect and 100 is complete control
Method in brief: as §1

pigweed [3] = assay: Test A postemergence; assay type: in vivo, Amaranthus retroflexus; conditions: 0 to 100 scale where 0 is no effect and 100 is complete control; for Pigweed plant response rating: 125 g ai/ha; for Plant response rating, Pigweed: 500 g ai/ha
Method in brief: as §1

wheat [4] = assay: Test A postemergence; assay type: in vivo, Triticum aestivum; conditions: 0 to 100 scale where 0 is no effect and 100 is complete control; for Wheat plant response rating: 125 g ai/ha; for Plant response rating, Wheat: 500 g ai/ha
Method in brief: as §1

sedge, umbrella = assay: Test B flooded paddy test; assay type: in vivo, Cyperus difformis; conditions: Flood, 250 g ai/ha; 0 to 100 scale where 0 is no effect and 100 is complete control
Method in brief: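 Visual ratings on a 0 to 100 scale, where 100 means complete control, compared treated plants with controls after 13 to 15 days in a greenhouse. Treatment went into paddy water 3 cm deep over the soil, applied to plants at the 2-leaf stage.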

Italian ryegrass = assay: Test C preemergence; assay type: in vivo, Lolium multiflorum; conditions: for Ryegrass, Italian plant response rating: preemergence; for Plant response rating, Ryegrass, Italian: Preemergence, 62 g ai/ha, scale 0 to 100, 0 no effect, 100 complete control
Method in brief: (§2)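 Greenhouse herbicide screen. Pre: seeded loam/sand, sprayed at planting. Post: 1–4 leaf plants (2–18 cm) in peat-based mix. Formulation: solvent mixture + surfactant, non-phytotoxic. Readout: visual % control vs untreated, 13–15 d; dash = not tested.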

galium = assay: Test C preemergence; assay type: in vivo, Galium aparine; conditions: for Galium plant response rating: preemergence; for Plant response rating, Galium: Preemergence, 62 g ai/ha, scale 0 to 100, 0 no effect, 100 complete control
Method in brief: as §2

large (Lg) crabgrass = assay: Test C postemergence; assay type: in vivo, Digitaria sanguinalis; conditions: for Crabgrass, Large plant response rating: 31 g ai/ha; for Crabgrass, Large plant response rating / Plant response rating, Crabgrass, Large: scale 0 to 100 (0 no effect, 100 complete control)
Method in brief: as §2

giant foxtail = assay: Test C postemergence; assay type: in vivo, Setaria faberii; conditions: for Foxtail, Giant plant response rating: 31 g ai/ha; for Foxtail, Giant plant response rating / Plant response rating, Foxtail, Giant: scale 0 to 100 (0 no effect, 100 complete control)
Method in brief: as §2

johnsongrass = assay: Test C postemergence; assay type: in vivo, Sorghum halepense; conditions: for Johnsongrass plant response rating: 31 g ai/ha; for Johnsongrass plant response rating / Plant response rating, Johnsongrass: scale 0 to 100 (0 no effect, 100 complete control)
Method in brief: as §2

yellow nutsedge = assay: Test C postemergence; assay type: in vivo, Cyperus esculentus; conditions: for Nutsedge, Yellow plant response rating: 31 g ai/ha; for Nutsedge, Yellow plant response rating / Plant response rating, Nutsedge, Yellow: scale 0 to 100 (0 no effect, 100 complete control)
Method in brief: as §2

soybean = assay: Test C postemergence; assay type: in vivo, Glycine max; conditions: for Soybean plant response rating: 31 g ai/ha; for Soybean plant response rating / Plant response rating, Soybean: scale 0 to 100 (0 no effect, 100 complete control)
Method in brief: as §2

oilseed rape = assay: Test C postemergence; assay type: in vivo, Brassica napus; conditions: for Oilseed Rape plant response rating: 31 g ai/ha; for Oilseed Rape plant response rating / Plant response rating, Oilseed Rape: scale 0 to 100 (0 no effect, 100 complete control)
Method in brief: as §2

velvetleaf = assay: Test C postemergence; assay type: in vivo, Abutilon theophrasti; conditions: for Velvetleaf plant response rating: 31 g ai/ha; for Velvetleaf plant response rating / Plant response rating, Velvetleaf: scale 0 to 100 (0 no effect, 100 complete control)
Method in brief: as §2

[5] = 125 g ai/ha, scale 0 (no effect) to 100 (complete control)
[6] = 250 g ai/ha, scale 0 (no effect) to 100 (complete control)
[7] = postemergence, visual rating, 13 to 15 days
[8] = 125 g ai/ha, postemergence, visual rating
[9] = Postemergence, 62 g ai/ha, 13 to 15 days
[10] = 16 g ai/ha, scale 0 to 100 (0 no effect, 100 complete control)
[11] = 16 g ai/ha, postemergence, 0 is no effect, 100 is complete control

N#Cc1cccc(Oc2ncc(Cl)cn2)c1-n1cc(I)cn1 [Compound 204]
Morningglory plant response rating (0 to 100 scale) (morningglory): 90
Morningglory plant response rating (morningglory): 90
Pigweed plant response rating (0 to 100 scale) (pigweed [1]): 100
Pigweed plant response rating (pigweed [1]): 100
Wheat plant response rating (0 to 100 scale) (wheat [2]): 40
Wheat plant response rating (wheat [2]): 60
Pigweed plant response rating (pigweed [3]): 100
Plant response rating, Pigweed (pigweed [3]): 100
Wheat plant response rating (wheat [4]): 40
Plant response rating, Wheat (wheat [4]): 70
Plant response rating, Sedge, Umbrella (sedge, umbrella): 90
Ryegrass, Italian plant response rating (Italian ryegrass; [5]): 75
Ryegrass, Italian plant response rating (Italian ryegrass; [6]): 95
Plant response rating, Ryegrass, Italian (Italian ryegrass): 35
Galium plant response rating (galium; [5]): 100
Galium plant response rating (galium; [6]): 100
Plant response rating, Galium (galium): 100
Crabgrass, Large plant response rating (large (Lg) crabgrass; [7]): 5
Plant response rating, Crabgrass, Large (large (Lg) crabgrass; [8]): 15
Plant response rating (0 to 100), Crabgrass, Large (large (Lg) crabgrass; 250 g ai/ha, postemergence): 65
Plant response rating, Crabgrass, Large (large (Lg) crabgrass; [9]): 10
Foxtail, Giant plant response rating (giant foxtail; [7]): 5
Plant response rating, Foxtail, Giant (giant foxtail; [8]): 10
Plant response rating (0 to 100), Foxtail, Giant (giant foxtail; 250 g ai/ha, postemergence): 90
Plant response rating, Foxtail, Giant (giant foxtail; [9]): 5
Johnsongrass plant response rating (johnsongrass; [7]): 5
Plant response rating, Johnsongrass (johnsongrass; [8]): 10
Plant response rating (0 to 100), Johnsongrass (johnsongrass; 250 g ai/ha, postemergence): 30
Plant response rating, Johnsongrass (johnsongrass; [9]): 5
Nutsedge, Yellow plant response rating (yellow nutsedge; [7]): 0
Plant response rating, Nutsedge, Yellow (yellow nutsedge; [8]): 0
Plant response rating (0 to 100), Nutsedge, Yellow (yellow nutsedge; 250 g ai/ha, postemergence): 5
Plant response rating, Nutsedge, Yellow (yellow nutsedge; [9]): 10
Soybean plant response rating (soybean; [7]): 70
Plant response rating, Soybean (soybean; [8]): 95
Plant response rating (0 to 100), Soybean (soybean; 250 g ai/ha, postemergence): 95
Plant response rating, Soybean (soybean; [9]): 95
Oilseed Rape plant response rating (oilseed rape; [7]): 40
Plant response rating, Oilseed Rape (oilseed rape; [8]): 85
Plant response rating (0 to 100), Oilseed Rape (oilseed rape; 250 g ai/ha, postemergence): 75
Plant response rating, Oilseed Rape (oilseed rape; [9]): 70
Velvetleaf plant response rating (velvetleaf; [7]): 35
Plant response rating, Velvetleaf (velvetleaf; [8]): 60
Plant response rating (0 to 100), Velvetleaf (velvetleaf; 250 g ai/ha, postemergence): 70
Plant response rating, Velvetleaf (velvetleaf; [9]): 40

N#Cc1cnn(-c2c(Oc3ncc(Cl)cn3)cccc2C(F)F)c1 [Compound 236]
Morningglory plant response rating (0 to 100 scale) (morningglory): 30
Morningglory plant response rating (morningglory): 100
Pigweed plant response rating (0 to 100 scale) (pigweed [1]): 100
Pigweed plant response rating (pigweed [1]): 100
Wheat plant response rating (0 to 100 scale) (wheat [2]): 0
Wheat plant response rating (wheat [2]): 100
Pigweed plant response rating (pigweed [3]): 100
Plant response rating, Pigweed (pigweed [3]): 100
Wheat plant response rating (wheat [4]): 50
Plant response rating, Wheat (wheat [4]): 100
Plant response rating, Sedge, Umbrella (sedge, umbrella): 100
Ryegrass, Italian plant response rating (Italian ryegrass; [10]): 0
Ryegrass, Italian plant response rating (Italian ryegrass; [5]): 85
Plant response rating, Ryegrass, Italian (Italian ryegrass): 45
Galium plant response rating (galium; [10]): 90
Galium plant response rating (galium; [5]): 100
Plant response rating, Galium (galium): 100
Plant response rating (0 to 100), Crabgrass, Large (large (Lg) crabgrass; [11]): 5
Crabgrass, Large plant response rating (large (Lg) crabgrass; [7]): 5
Plant response rating, Crabgrass, Large (large (Lg) crabgrass; [8]): 5
Plant response rating, Crabgrass, Large (large (Lg) crabgrass; [9]): 5
Plant response rating (0 to 100), Foxtail, Giant (giant foxtail; [11]): 5
Foxtail, Giant plant response rating (giant foxtail; [7]): 50
Plant response rating, Foxtail, Giant (giant foxtail; [8]): 15
Plant response rating, Foxtail, Giant (giant foxtail; [9]): 15
Plant response rating (0 to 100), Johnsongrass (johnsongrass; [11]): 10
Johnsongrass plant response rating (johnsongrass; [7]): 25
Plant response rating, Johnsongrass (johnsongrass; [8]): 20
Plant response rating, Johnsongrass (johnsongrass; [9]): 15
Plant response rating (0 to 100), Nutsedge, Yellow (yellow nutsedge; [11]): 0
Nutsedge, Yellow plant response rating (yellow nutsedge; [7]): 0
Plant response rating, Nutsedge, Yellow (yellow nutsedge; [8]): 5
Plant response rating, Nutsedge, Yellow (yellow nutsedge; [9]): 0
Plant response rating (0 to 100), Soybean (soybean; [11]): 60
Soybean plant response rating (soybean; [7]): 75
Plant response rating, Soybean (soybean; [8]): 95
Plant response rating, Soybean (soybean; [9]): 85
Plant response rating (0 to 100), Oilseed Rape (oilseed rape; [11]): 30
Oilseed Rape plant response rating (oilseed rape; [7]): 10
Plant response rating, Oilseed Rape (oilseed rape; [8]): 65
Plant response rating, Oilseed Rape (oilseed rape; [9]): 30
Plant response rating (0 to 100), Velvetleaf (velvetleaf; [11]): 55
Velvetleaf plant response rating (velvetleaf; [7]): 65
Plant response rating, Velvetleaf (velvetleaf; [8]): 80
Plant response rating, Velvetleaf (velvetleaf; [9]): 85
